These are literature values, as cited in patent US9700048B2, “Agroformulation comprising copolymer of vinyllactam, N-alkyl acrylamide, and alkyl (meth)acrylate” (BASF SE, priority 2012, dated 2017).

In brackets after ≈: the same amount, converted by molar mass.

For this data set the following is noted: at 20° C.

As for `Cn1cc(C(=O)Nc2ccccc2-c2cc(F)c(F)c(F)c2)c(C(F)F)n1` [fluxapyroxad], the solubility in water is 3.88 µg/mL (≈ 10.2 µM).
